Converted amounts (≈) assume the structure as drawn.
Tests used:
[1] = system: Acinetobacter baumannii; assay: Antibacterial activity against Acinetobacter baumannii ATCC19606 assessed as bacterial growth inhibition incubated for 18 to 20 hrs by microbroth dilution method; assay type: functional; conditions: time 18-20 hrs
[2] = Lipophilicity, logD of compound at pH 7 by HPLC analysis; assay type: physicochemical; conditions: buffer
[3] = Inhibition of wildtype Acinetobacter baumannii MsbA preincubated for 30 mins followed by ATP addition and measured after 1 hrs by Transcreener ADP2 F1 assay
[4] = system: MT4; assay: (§1) Cytotoxicity against GFP fused human MT4 cells cultured under serum free condition for 24 hrs by CellTiter-Glo assay; assay type: toxicity, cell-based; conditions: mt4, 24 h, time 24 hrs
[5] = system: Acinetobacter baumannii; assay: Antibacterial activity against Acinetobacter baumannii ATCC19606 incubated for 18 to 20 hrs in presence of 1% of human serum by microbroth dilution method; assay type: functional; conditions: time 18-20 hrs
[6] = system: Acinetobacter baumannii; assay: Selectivity ratio of MIC95 for antibacterial activity against Acinetobacter baumannii ATCC19606 in the presence of 1% human serum to MIC95 for antibacterial activity against Acinetobacter baumannii ATCC19606; assay type: functional
[7] = system: Acinetobacter baumannii; assay: Antibacterial activity against Acinetobacter baumannii CLB21655 incubated for 18 to 20 hrs in presence of 50% mouse serum by microbroth dilution method; assay type: functional; conditions: time 18-20 hrs
[8] = system: Acinetobacter baumannii; assay: Antibacterial activity against Acinetobacter baumannii CLB21655 incubated for 18 to 20 hrs in presence of 50% human serum by microbroth dilution method; assay type: functional; conditions: time 18-20 hrs
[9] = system: Acinetobacter baumannii; assay: Antibacterial activity against Acinetobacter baumannii CLB21655 assessed as bacterial growth inhibition incubated for 18 to 20 hrs by microbroth dilution method; assay type: functional; conditions: time 18-20 hrs
[10] = system: Acinetobacter baumannii; assay: Antibacterial activity against Acinetobacter baumannii CLB21655 incubated for 18 to 20 hrs in presence of 10% mouse serum by microbroth dilution method; assay type: functional; conditions: time 18-20 hrs
[11] = Cmax in male C57BL/6 mouse at 300 mg/kg, sc administered once in a day and measured after 24 hrs by LC-MS/MS analysis; assay type: ADME, organism-based; conditions: in vivo
[12] = AUC (0 to infinity) in male C57BL/6 mouse at 300 mg/kg, sc administered once in a day and measured after 24 hrs by LC-MS/MS analysis; assay type: ADME, organism-based; conditions: male, C57BL/6, mouse, in vivo
[13] = AUC (0 to infinity) in male C57BL/6 mouse at 300 mg/kg, sc administered 3 times a day with 3 hrs interval and measured after 24 hrs by LC-MS/MS analysis; assay type: ADME, organism-based; conditions: male, C57BL/6, mouse, in vivo
[14] = as §1; assay type: toxicity, cell-based; conditions: GFP fused MT4 cells
[15] = Cmax in male C57BL/6 mouse at 300 mg/kg, sc administered 3 times a day with 3 hrs interval and measured after 24 hrs by LC-MS/MS analysis; assay type: ADME, organism-based; conditions: in vivo
[16] = system: Acinetobacter baumannii; assay: (§2) Antibacterial activity against Acinetobacter baumannii CLB21655 infected in female DBA mouse blood stream infection model assessed as reduction in bacterial burden in spleen at 10 mg/kg, sc pre-infected with bacteria for 0.5 hrs followed by thrice daily compound administration and measured after 8 hrs (reference value: 6.3 log10CFU/g); assay type: functional
[17] = system: Acinetobacter baumannii; assay: as §2, with “fold change” for “reduction”, “colony forming units” for “bacterial burden”, “relative to control” for “(reference value: 6.3 log10CFU/g)”; assay type: functional
[18] = system: Acinetobacter baumannii; assay: as §2, with “once” for “thrice”, “5.85” for “6.3”; assay type: functional
[19] = system: Acinetobacter baumannii; assay: (§3) Antibacterial activity against Acinetobacter baumannii CLB21655 infected in female DBA mouse lung infection model assessed as fold change in colony forming units in lung at 10 mg/kg, sc pre-infected with bacteria for 2 hrs followed by compound administration and measured after 24 hrs relative to control; assay type: functional
[20] = system: Acinetobacter baumannii; assay: as §2, with “lung” for “blood stream”, “lung” for “spleen”, “2” for “0.5”, “by” for “by thrice daily”, “24” for “8”; assay type: functional
[21] = system: Acinetobacter baumannii; assay: as §3, with “mouse blood stream” for “mouse lung”, “in spleen” for “in lung”, “for 0.5” for “for 2”, “by once daily” for “by”, “after 8” for “after 24”; assay type: functional
[22] = system: Acinetobacter baumannii; assay: Antibacterial activity against Acinetobacter baumannii ATCC 19606 assessed as bacterial growth inhibition incubated overnight by spectrophotometric analysis; assay type: functional
[23] = system: Acinetobacter baumannii; assay: Antibacterial activity against wild type Acinetobacter baumannii; assay type: functional
[24] = Plasma protein binding in C57BL/6 mouse assessed as free fraction at 1000 to 100000 ng/ml by equilibrium dialysis based LC-MS/MS analysis; assay type: ADME, cell-free; conditions: dose 1000-100000 ng/ml
[25] = system: Acinetobacter baumannii; assay: Antibacterial activity against Acinetobacter baumannii ATCC19606 incubated for 18 to 20 hrs in presence of 10% human serum by microbroth dilution method; assay type: functional; conditions: time 18-20 hrs
[26] = AUC (0 to infinity) in male C57BL/6 mouse at 300 mg/kg, sc measured after 24 hrs by LC-MS/MS analysis; assay type: ADME, organism-based; conditions: in vivo
[27] = Cmax in male C57BL/6 mouse at 300 mg/kg, sc measured after 24 hrs by LC-MS/MS analysis; assay type: ADME, organism-based; conditions: in vivo
[28] = system: Acinetobacter baumannii; assay: Selectivity ratio of MIC95 for antibacterial activity against Acinetobacter baumannii ATCC19606 in the presence of 10% human serum to MIC95 for antibacterial activity against Acinetobacter baumannii ATCC19606; assay type: functional

## CCCCc1ccc(S(=O)(=O)Nc2ccc(NC(=O)Nc3ccc(NS(=O)(=O)c4ccc(CCCC)cc4)c(C(=O)O)c3)cc2C(=O)O)cc1
[1]
  MIC95: 2.21 µM (≈ 1.6 µg/mL)
[2]
  logD: 2.3

## O=C(CCCOc1ccc(NS(=O)(=O)CCc2ccc(F)cc2)c(C(=O)O)c1)Nc1ccc(NS(=O)(=O)CCc2ccc(F)cc2)c(C(=O)O)c1
[1]
  MIC95: 3.12 µM (≈ 2.33 µg/mL)
[3]
  EC50: 1.14 µM
[4]
  Activity: Non-Toxic
[5]
  MIC95: 25 µM
[6]
  Selectivity ratio: 8

## O=C(O)c1cc(CN2CC(Oc3ccc(NS(=O)(=O)c4cnn(-c5ccc(F)cc5)c4)c(C(=O)O)c3)C2)ccc1NS(=O)(=O)CCCCc1ccc(Cl)cc1
[7]
  MIC: 70.7 µM
[8]
  MIC: 29.7 µM
[9]
  MIC: 0.078 µM (≈ 0.0634 µg/mL)
[10]
  MIC: 3.12 µM

## O=C(CCCOc1ccc(NS(=O)(=O)c2ccc(-c3ccc(C(F)(F)F)cc3)cc2)c(C(=O)O)c1)Nc1ccc(NS(=O)(=O)c2ccc(-c3ccc(C(F)(F)F)cc3)cc2)c(C(=O)O)c1
[11]
  Cmax: 370 µM
[12]
  AUC(0-inf): 885 µM·h
[1]
  MIC95: 0.391 µM (≈ 0.368 µg/mL)
[13]
  AUC(0-inf): 3780 µM·h
[3]
  EC50: < 0.01 µM
[14]
  EC50 at 24 h: 11.2 µM
[15]
  Cmax: 543 µM
[5]
  MIC95: 3.12 µM
[6]
  Selectivity ratio: 8

## CN(C)c1cc(NC(=O)CNC(C)(C)C)c(O)c2c1C[C@H]1C[C@H]3[C@H](N(C)C)C(O)=C(C(N)=O)C(=O)[C@@]3(O)C(O)=C1C2=O [TIGECYCLINE]
[16]
  Activity: 3.5 log10CFU/g
[17]
  fold change (FC): 2.8
[18]
  Activity: 2.85 log10CFU/g
[19]
  fold change (FC): 2.8
[20]
  Activity: 3.5 log10CFU/g
[21]
  fold change (FC): 3

## CCCCc1ccc(S(=O)(=O)Nc2ccc(NC(=O)N3CCOCC3)cc2C(=O)O)cc1
[22]
  MIC: ≤ 12.5 µM

## O=C(Nc1sc2c(c1C(=O)O)CCCC2)c1ccc(Cl)cc1
[23]
  MIC: 60 µM (≈ 20.1 µg/mL)

## O=C(O)c1cc(CN2CC(Oc3ccc(NS(=O)(=O)c4ccc(-c5ccc(F)cc5)s4)c(C(=O)O)c3)C2)ccc1NS(=O)(=O)c1cnn(-c2ccc(F)cc2)c1
[24]
  Fu: 0.6%
[25]
  MIC95: 6.25 µM
[26]
  AUC: 7970 µM·h
[1]
  MIC95: 0.024 µM (≈ 0.0197 µg/mL)
[3]
  EC50: 0.0073 µM
[27]
  Cmax: 502 µM
[28]
  Selectivity ratio: 260
[14]
  EC50 at 24 h: > 42 µM
[2]
  logD: 1.8

Reference: ChEMBL document CHEMBL5584343, “Cerastecin Inhibition of the Lipooligosaccharide Transporter MsbA to Combat Acinetobacter baumannii: From Screening Impurity to In Vivo Efficacy” (J Med Chem, 2024)
